Reference: patent US20190343908A1, “Therapeutic Combination for the Treatment of Cancer” (Nerium Biotechnology Inc., priority 2011, published 2019)

Legend:
[1] = system: PANC-1 pancreatic cancer cell line; assay: Methyl-Tetrazolium viability assay, PANC-1; type: cell-based, human; parameters: key to Average MTT: absorbance at 570 nm (optical density); settings: for ABSORBANCE: 0.1 μg/mL cisplatin; for MTT 24 h / MTT 48 h / MTT 72 h: Run 1 average
Text: (§1) The Methyl-Tetrazolium dye assay measures the activity of enzymes in mitochondria. The dye precursor is taken up by cells, where it undergoes reduction to the purple formazan. It measures only the mitochondrial activity and, thus, it is not always a reliable indication of whether the cells themselves are alive or dead, since even a recently dead cell has […] enzyme activity in mitochondria. Intracellular glucose concentration, pH, and time before assay all affect the measurements.
(§2) The Methyl Tetrazolium, Sulforhodamine B, and Crystal Violet assays were used to assess cell viabilities. The incubation times were 24 hours, 48 hours, and 72 hours. The Nerium oleander extract Anvirzel™ (a hot water extract of oleander obtained from Salud Integral, Honduras) was tested in concentrations ranging from 0.01 ng/mL to 10 ng/mL.
(§3) Cells were detached by trypsinization (Trypsin-0.25% EDTA, Invitrogen, 25200-072) during the logarithmic phase of culture growth and plated in 96-well plates (18.000 cells/well) (Corning, Costar 359) in a final volume of 200 μl of medium per well. […] The absorbance was measured after 24 hours, 48 hours, and 72 hours of incubation.
(§4) For the Methyl-Tetrazolium assay, the dye (Sigma, M2128; 5 mg/mL, diluted in phosphate-buffered saline) was added to each well and plates were incubated for 3 hours at 37° C. After the end of the incubation period, the medium was discarded and the cells were rinsed with phosphate-buffered saline. Finally, the formazan crystals were dissolved in dimethylsulphoxide (Sigma, D4540).
(§5) The optical density of each plate was measured on a μQuant spectrophotometer and the data were analyzed with Gen5 software (μQuant Biomolecular Spectrophotometer MQX200 and Gen5™ Microplate Data Collection & Analysis software, BioTek® Instruments. Inc, April 2008). Absorbance was measured at 570 nm for all assays and a second wavelength was measured in order to subtract noise. For the Methyl-Tetrazolium assay this second wavelength was 630 nm and for the Sulforhodamine B and Crystal Violet assays it was 690 nm.

[2] = system: MCF-7 (human breast cancer); assay: Crystal Violet viability assay, MCF-7; type: cell-based; parameters: key: absorbance at 570 nm (second wavelength subtracted)
Text: The Sulforhodamine B and Crystal Violet assays provide information about protein and were used to complement the Methyl-Tetrazolium dye assay. […] It is used for the quantification of cellular proteins of cultured cells. The assay using Crystal Violet, a dye that binds electrostatically to proteins and stains DNA, provides a reliable, simple assay for measuring viability of cells.
as §2, §3
[…] Formalin was removed and 0.25% aqueous crystal violet (Sigma, HT901), dissolved in water, was added for 10 minutes at RT. Unbound Crystal Violet was rinsed by washing with water and finally 33% acetic acid was added to dissolve the dye.
as §5

[3] = system: CALU-1 (non-small cell lung carcinoma); assay: Methyl-Tetrazolium viability assay, CALU-1; type: cell-based, human
Text: Three different viability assays were chosen to complement each other and yielded results dependent on concentration and cell line: the Methyl Tetrazolium dye assay, the Sulforhodamine B fluorescent dye assay, and the Crystal Violet dye assay.
as §1, §2, §3, §4, §5

Q: Which results are given for N.N.[Cl][Pt][Cl] [cisplatin]?
A: ABSORBANCE ([1]; PANC-1, 48 h): 0.286; ABSORBANCE ([1]; PANC-1, 72 h): 0.344; Average MTT ([1]; PANC-1, Run 2, 24 h, 0.1 μg/ml CDDP): 0.096; Average MTT ([1]; PANC-1, Run 2, 24 h, 1 μg/ml CDDP): 0.029; Average MTT ([1]; PANC-1, Run 2, 24 h, 10 μg/ml CDDP): 0.058; Average MTT ([1]; PANC-1, Run 2, 24 h, 100 μg/ml CDDP): 0.029; Average MTT ([1]; PANC-1, Run 2, 48 h, 0.1 μg/ml CDDP): 0.178; Average MTT ([1]; PANC-1, Run 2, 48 h, 1 μg/ml CDDP): 0.037; Average MTT ([1]; PANC-1, Run 2, 48 h, 10 μg/ml CDDP): 0.041; Average MTT ([1]; PANC-1, Run 2, 48 h, 100 μg/ml CDDP): 0.034; Average MTT ([1]; PANC-1, Run 2, 72 h, 0.1 μg/ml CDDP): 0.241; Average MTT ([1]; PANC-1, Run 2, 72 h, 1 μg/ml CDDP): 0.033; Average MTT ([1]; PANC-1, Run 2, 72 h, 10 μg/ml CDDP): 0.04; Average MTT ([1]; PANC-1, Run 2, 72 h, 100 μg/ml CDDP): 0.033; Average MTT ([1]; PANC-1, Run 3, 24 h, 0.1 μg/ml CDDP): 0.076; Average MTT ([1]; PANC-1, Run 3, 24 h, 1 μg/ml CDDP): 0.02; Average MTT ([1]; PANC-1, Run 3, 24 h, 10 μg/ml CDDP): 0.04; Average MTT ([1]; PANC-1, Run 3, 24 h, 100 μg/ml CDDP): 0.022; Average MTT ([1]; PANC-1, Run 3, 48 h, 0.1 μg/ml CDDP): 0.286; Average MTT ([1]; PANC-1, Run 3, 48 h, 1 μg/ml CDDP): 0.043; Average MTT ([1]; PANC-1, Run 3, 48 h, 10 μg/ml CDDP): 0.045; Average MTT ([1]; PANC-1, Run 3, 48 h, 100 μg/ml CDDP): 0.044; Average MTT ([1]; PANC-1, Run 3, 72 h, 0.1 μg/ml CDDP): 0.344; Average MTT ([1]; PANC-1, Run 3, 72 h, 1 μg/ml CDDP): 0.049; Average MTT ([1]; PANC-1, Run 3, 72 h, 10 μg/ml CDDP): 0.05; Average MTT ([1]; PANC-1, Run 3, 72 h, 100 μg/ml CDDP): 0.049; MTT 24 h ([1]; 0.1 μg/ml CDDP): 0.169; MTT 48 h ([1]; 0.1 μg/ml CDDP): 0.24; MTT 24 h ([1]; 1 μg/ml CDDP): 0.035; MTT 48 h ([1]; 1 μg/ml CDDP): 0.035; MTT 72 h ([1]; 1 μg/ml CDDP): 0.03; MTT 24 h ([1]; 10 μg/ml CDDP): 0.048; MTT 48 h ([1]; 10 μg/ml CDDP): 0.038; MTT 72 h ([1]; 10 μg/ml CDDP): 0.035; MTT 24 h ([1]; 100 μg/ml CDDP): 0.034; MTT 48 h ([1]; 100 μg/ml CDDP): 0.039; MTT 72 h ([1]; 100 μg/ml CDDP): 0.032; CVE Average ([2]; MCF-7, Run 2, 24 h, 0.1 μg/ml CDDP): 0.71; CVE Average ([2]; MCF-7, Run 2, 24 h, 1 μg/ml CDDP): 0.192; CVE Average ([2]; MCF-7, Run 2, 24 h, 10 μg/ml CDDP): 0.612; CVE Average ([2]; MCF-7, Run 2, 24 h, 100 μg/ml CDDP): 0.288; CVE Average ([2]; MCF-7, Run 2, 48 h, 0.1 μg/ml CDDP): 0.664; CVE Average ([2]; MCF-7, Run 2, 48 h, 1 μg/ml CDDP): 0.239; CVE Average ([2]; MCF-7, Run 2, 48 h, 10 μg/ml CDDP): 0.24; CVE Average ([2]; MCF-7, Run 2, 48 h, 100 μg/ml CDDP): 0.221; CVE Average ([2]; MCF-7, Run 2, 72 h, 0.1 μg/ml CDDP): 0.678; CVE Average ([2]; MCF-7, Run 2, 72 h, 1 μg/ml CDDP): 0.151; CVE Average ([2]; MCF-7, Run 2, 72 h, 100 μg/ml CDDP): 0.147; CVE Average ([2]; MCF-7, Run 3, 24 h, 0.1 μg/ml CDDP): 0.454; CVE Average ([2]; MCF-7, Run 3, 24 h, 1 μg/ml CDDP): 0.183; CVE Average ([2]; MCF-7, Run 3, 24 h, 10 μg/ml CDDP): 0.307; CVE Average ([2]; MCF-7, Run 3, 48 h, 0.1 μg/ml CDDP): 0.811; CVE Average ([2]; MCF-7, Run 3, 48 h, 1 μg/ml CDDP): 0.871; CVE Average ([2]; MCF-7, Run 3, 48 h, 10 μg/ml CDDP): 0.769; CVE Average ([2]; MCF-7, Run 3, 48 h, 100 μg/ml CDDP): 0.439; CVE Average ([2]; MCF-7, Run 3, 72 h, 0.1 μg/ml CDDP): 1.312; CVE Average ([2]; MCF-7, Run 3, 72 h, 1 μg/ml CDDP): 0.51; CVE Average ([2]; MCF-7, Run 3, 72 h, 10 μg/ml CDDP): 0.449; CVE Average ([2]; MCF-7, Run 3, 72 h, 100 μg/ml CDDP): 0.253; CVE Average ([2]; MCF-7 Run 1, 24 h, 0.1 μg/ml CDDP): 0.978; CVE Average ([2]; MCF-7 Run 1, 24 h, 1 μg/ml CDDP): 0.376; CVE Average ([2]; MCF-7 Run 1, 24 h, 10 μg/ml CDDP): 0.468; CVE Average ([2]; MCF-7 Run 1, 24 h, 100 μg/ml CDDP): 0.285; CVE Average ([2]; MCF-7 Run 1, 48 h, 0.1 μg/ml CDDP): 1.112; CVE Average ([2]; MCF-7 Run 1, 48 h, 10 μg/ml CDDP): 0.303; CVE Average ([2]; MCF-7 Run 1, 48 h, 100 μg/ml CDDP): 0.153; CVE Average ([2]; MCF-7 Run 1, 72 h, 0.1 μg/ml CDDP): 1.632; CVE Average ([2]; MCF-7 Run 1, 72 h, 1 μg/ml CDDP): 0.325; CVE Average ([2]; MCF-7 Run 1, 72 h, 10 μg/ml CDDP): 0.237; CVE Average ([2]; MCF-7 Run 1, 72 h, 100 μg/ml CDDP): 0.284; Average MTT 24 h ([3]; CALU-1 Run 1, 0.1 μg/ml CDDP): 0.178; Average MTT 48 h ([3]; CALU-1 Run 1, 0.1 μg/ml CDDP): 0.272; Average MTT 72 h ([3]; CALU-1 Run 1, 0.1 μg/ml CDDP): 0.272; Average MTT 24 h ([3]; CALU-1 Run 1, 1 μg/ml CDDP): 0.024; Average MTT 48 h ([3]; CALU-1 Run 1, 1 μg/ml CDDP): 0.024; Average MTT 72 h ([3]; CALU-1 Run 1, 1 μg/ml CDDP): 0.032; Average MTT 24 h ([3]; CALU-1 Run 1, 10 μg/ml CDDP): 0.043; Average MTT 48 h ([3]; CALU-1 Run 1, 10 μg/ml CDDP): 0.031; Average MTT 72 h ([3]; CALU-1 Run 1, 10 μg/ml CDDP): 0.024; Average MTT 24 h ([3]; CALU-1 Run 1, 100 μg/ml CDDP): 0.033; Average MTT 48 h ([3]; CALU-1 Run 1, 100 μg/ml CDDP): 0.033; Average MTT 72 h ([3]; CALU-1 Run 1, 100 μg/ml CDDP): 0.019; Average MTT 24 h ([3]; CALU-1 Run 2, 0.1 μg/ml CDDP): 0.244; Average MTT 48 h ([3]; CALU-1 Run 2, 0.1 μg/ml CDDP): 0.322; Average MTT 72 h ([3]; CALU-1 Run 2, 0.1 μg/ml CDDP): 0.29; Average MTT 24 h ([3]; CALU-1 Run 2, 1 μg/ml CDDP): 0.055; Average MTT 48 h ([3]; CALU-1 Run 2, 1 μg/ml CDDP): 0.024; Average MTT 72 h ([3]; CALU-1 Run 2, 1 μg/ml CDDP): 0.021; Average MTT 24 h ([3]; CALU-1 Run 2, 10 μg/ml CDDP): 0.056; Average MTT 48 h ([3]; CALU-1 Run 2, 10 μg/ml CDDP): 0.019; Average MTT 72 h ([3]; CALU-1 Run 2, 10 μg/ml CDDP): 0.015; Average MTT 24 h ([3]; CALU-1 Run 2, 100 μg/ml CDDP): 0.035; Average MTT 48 h ([3]; CALU-1 Run 2, 100 μg/ml CDDP): 0.016; Average MTT 72 h ([3]; CALU-1 Run 2, 100 μg/ml CDDP): 0.018; Average MTT 24 h ([3]; CALU-1 Run 3, 0.1 μg/ml CDDP, 24 h): 0.178; Average MTT 48 h ([3]; CALU-1 Run 3, 0.1 μg/ml CDDP, 48 h): 0.281; Average MTT 72 h ([3]; CALU-1 Run 3, 0.1 μg/ml CDDP, 72 h): 0.295; Average MTT 24 h ([3]; CALU-1 Run 3, 1 μg/ml CDDP, 24 h): 0.029; Average MTT 48 h ([3]; CALU-1 Run 3, 1 μg/ml CDDP, 48 h): 0.033; Average MTT 72 h ([3]; CALU-1 Run 3, 1 μg/ml CDDP, 72 h): 0.031; Average MTT 24 h ([3]; CALU-1 Run 3, 10 μg/ml CDDP, 24 h): 0.057; Average MTT 48 h ([3]; CALU-1 Run 3, 10 μg/ml CDDP, 48 h): 0.025; Average MTT 72 h ([3]; CALU-1 Run 3, 10 μg/ml CDDP, 72 h): 0.022; Average MTT 24 h ([3]; CALU-1 Run 3, 100 μg/ml CDDP, 24 h): 0.028; Average MTT 48 h ([3]; CALU-1 Run 3, 100 μg/ml CDDP, 48 h): 0.026; Average MTT 72 h ([3]; CALU-1 Run 3, 100 μg/ml CDDP, 72 h): 0.002
